Broadly, the melting point is the temperature, or range, at which the solid turns liquid. Turning to `C=CCOc1ccc2c(c1)c(-c1cc3cccnc3n1S(=O)(=O)c1ccc(C)cc1)cn2C`, the melting point was 257 to 259 °C.

For `COc1ccc(-c2nc3cc(Cl)cc(C#CCN(OC(=O)OC(C)(C)C)C(=O)OC(C)(C)C)c3o2)cc1OC1CCCC1`, the melting point was in the range of 144 to 146 °C.

Compound `O=C1C(Cc2ccccc2)C(c2ccccc2)=Nc2ccccc2N1Cc1ccccc1` (stereo not given) came in with a melting point of 173 to 174 °C.

`CC(C)(C)C(O)C(C(Sc1ccccc1)c1ccc(F)cc1)n1cncn1` (stereo not given) returned a melting point of 171 °C.

For `CC(=O)SCC1CCCCCCCSC[C@@H](C(=O)OCc2ccccc2)NC1=O` (stereo not given in full), the melting point fell in the range of 192 to 193 °C.

`O=C1Nc2ccc3sccc3c2C1=O` registered a melting point of 200 to 201 °C.

Take `C=CCCc1cccc2c1C(=O)C1=C(CCCC1)C2=O`: the melting point lay in the range of 111 to 113 °C.

Regarding `C[Si]1(CC(CN)CC(=O)O)CCCC1` (stereo not given), the melting point was in the range of 133 to 135 °C.

For `CCOc1cccc(-c2n[nH]c(-c3ccccc3C)n2)c1`, the melting point was in the range of 84 to 86 °C.

In turn, `CC1(C)Oc2ccc(C(N)=O)cc2[C@H](NCCc2ccccc2)[C@H]1O` (relative stereo) yielded a melting point of 162 °C.

In turn, `CCS(=O)(=O)CCNC(=O)C1=C(C(=O)Nc2ccc(Cl)cc2F)CCCC1` displayed a melting point of 150 to 151 °C.

Regarding `O=C(c1cc2ccc(N3CCOCC3)cc2o1)C12CC3CC(CC(C3)C1)C2`, the melting point was in the range of 123 to 125 °C.

With `O=C(O)c1ccc2[nH]cc(-c3cc4cccnc4[nH]3)c2c1`, the melting point was greater than 300 °C.

With `O=c1c2ccccc2ncn1CCN1CC=C(c2c[nH]c3ccccc23)CC1`, the melting point was found to be 132 °C.

`Cc1ccc2c(c1)[nH]c(=O)n2CCCl`: the melting point came to 120 °C.

As to `COc1c(-c2ccccc2)c2ccc(-c3ccc(C(C)C)cc3)cc2oc1=O`, the melting point came out at 85.5 °C.

Compound `Cc1cc2nc(NC(=O)C(C)(C)C)[nH]c(=O)c2[nH]1` registered a melting point of 156 to 157 °C.

Compound `Nc1ncc2cc(-c3c(Cl)cccc3Cl)c(=O)n(Cc3c(Cl)cccc3Cl)c2n1` displayed a melting point of 274 to 276 °C.

Compound `COc1ccc(C2C(C#N)=C(N)Oc3c2ccc2cnccc32)cc1OC` (stereo not given) showed a melting point of 215 to 218 °C.

Regarding `CN1CCC(OC(c2ccccc2)c2nc3ccccc3s2)CC1` (stereo not given), the melting point amounted to 115 °C.

For `COc1ccc(OC(C(=O)O)c2ccccc2)cc1` (stereo not given), the melting point was in the range of 108 to 110 °C.

In the case of `O=C(N[C@@H](CCC1CCCCC1)[C@@H](O)[C@@H](O)CN1CCOCC1)OCc1ccccc1`, the melting point lay within 124 to 125 °C.

Turning to `O=c1c(Br)c(OCc2ccc(F)cc2)ccn1Cc1cccc(F)c1`, the melting point was in the range of 180 to 183 °C.

`COc1ccc(CN2Cc3c(-c4nc(C5CC5)no4)ncn3-c3ccc(OC)cc3C2=O)c(OC)c1` gave a melting point greater than 240 °C.

`CS(=O)(=O)c1ccc(Oc2cc(OCc3cccc(Cl)n3)c3[nH]c(C4=NCC(CCO)S4)cc3c2)cc1` (stereo not given) had a melting point of 93 to 94 °C.

Turning to `Cn1ncnc1COc1nn2c(-c3ccccc3)nncc2c1-c1ccccc1`, the melting point worked out at 185 °C.

The compound `COc1cc2c(cc1N1CCNCC1)N(C(=O)c1ccc(-c3ccc(-c4noc(C)n4)cc3C)cc1)CC2` registered a melting point of 153 to 155 °C.

Take `Cc1nc2c(N)nc3cccnc3c2n1CC(C)C`: the melting point fell in the range of 228 to 230 °C.

In turn, `CCOC(=O)/C=C/c1ccc(OCCOC)cc1Oc1ncc(C(F)(F)F)cc1Cl` had a melting point of 78.2 to 78.5 °C.

`COC1=CC(O)=CC(OC)C1(OC)c1cc2cccnc2[nH]1` (stereo not given) gave a melting point of 174 to 176 °C.

`Fc1cccc(F)c1-c1nnc(-c2ccccc2Br)nn1` yielded a melting point of 168 °C.

As for `COc1ccc(CC(=O)N[C@H]2C[C@H](C(=O)O)Nc3cc(Cl)cc(Cl)c32)cc1` (relative stereo), the melting point fell in the range of 245 to 247 °C.

For the compound `O=C(O)c1ccc(OCCC(c2ccccc2)(c2ccccc2)c2ccccc2)cc1`, the melting point is 201 to 202 °C.

In turn, `CN(C)Cc1cccc(CSCCNC2=NS(=O)N=C2N)c1` (stereo not given) came in with a melting point of 122 to 125 °C.

On to `COc1ccc(OC)c(Cc2n[nH]c3c2c(=O)n(-c2ccccc2)c2ncccc32)c1`, for which the melting point was in the range of 248 to 250 °C.

For the compound `OCc1cc(O)cc(Nc2c3ccccc3nc3ccccc23)c1`, the melting point lay within 201 to 202 °C.

`CNC(=O)CC(C#Cc1ccccc1)c1ccc(OC)c(OC2CCCC2)c1` (racemic) registered a melting point of 127 to 131 °C.

Regarding `Nc1n[nH]c2c(C(F)(F)F)cccc12`, the melting point fell in the range of 101 to 102 °C.

In turn, `CCOC(=O)/C=C(C)/C=C/C=C(C)/C=C/c1c(Cl)cc(OC(F)(F)F)c(C)c1Cl` yielded a melting point of 93 to 94 °C.

Regarding `O=C(NO)c1ccc2c(c1)CCN(C(=O)NCCOc1ccccc1)C2`, the melting point lay within 120 to 123 °C.

Regarding `CC(=O)N1C(C)(C)CC(OC(=O)C(Cc2cc(C(C)(C)C)c(O)c(C(C)(C)C)c2)(Cc2cc(C(C)(C)C)c(O)c(C(C)(C)C)c2)C(C)=O)CC1(C)C`, the melting point was 165 to 166 °C.

Turning to `O=C(SCSc1c[nH]nn1)c1ccccc1`, the melting point lay within 72.5 to 73.5 °C.

The compound `Cc1ccc(S(=O)(=O)N2Cc3cncnc3-c3ccc(Cl)cc3C2c2ccccc2Cl)cc1` (stereo not given) registered a melting point of 200 to 201 °C.

`COC(=O)C(CCSC)N(C(=O)OC(C)(C)C)C(=O)c1ccc(N)cc1` (stereo not given) came in with a melting point of 184 to 185 °C.

Take `O=S1(=O)N[C@@H](c2cccc(Cl)c2)c2ccccc21`: the melting point is 137 to 138 °C.

`Cc1ccc(-c2ncn(-c3ccc(C(F)(F)C(F)(F)C(F)(F)F)cc3)n2)cc1` came in with a melting point of 140 to 143 °C.

For the compound `CC1=C(c2cccc(C(F)(F)F)c2)n2ncc3c(=O)nc(NC(C)C)n(c32)C1`, the melting point fell in the range of 284 to 286 °C.

`NNc1ccc(Cl)c(Cl)c1Cl`: the melting point fell in the range of 138 to 140 °C.

Take `CN(C)C(=O)Cc1ccc(CC(=O)O)cc1`: the melting point lay within 163 to 165 °C.

Regarding `O=C1NC(=Cc2ccc(Cl)cc2)C(=O)C1=NO`, the melting point worked out at 190 °C.

`O=[N+]([O-])C=C(NCCCCc1nc[nH]c1Br)NCCCCc1nc[nH]c1Br` showed a melting point of 198 to 200 °C.

`O=C1O[C@@H](COc2cnsn2)CN1c1ccc(N2C[C@@H]3C[C@H]2CN3Cc2ccccc2)c(F)c1` returned a melting point of 97 to 98 °C.

`CCn1c(C(=O)c2cc(C)cc(C=CC#N)c2)c(C(C)C)c(=O)[nH]c1=O` had a melting point of 174 to 176 °C.

Compound `O=C1O[C@H](c2ccccc2)[C@H](c2ccccc2)N[C@H]1Cc1ccccc1C1CCCCC1` showed a melting point of 159 to 160 °C.

On to `COc1ccc(-c2c(Cl)nc(C)nc2NS(=O)(=O)c2ccc(OC)cc2)cc1`, for which the melting point lay within 152 to 154 °C.

In turn, `Cc1cc(-c2ccccc2C#N)ccc1[N+](=O)[O-]` gave a melting point of 128 to 136 °C.

`C=Cc1c(F)c(F)c(F)c2c1c(=O)c(C(=O)OCC)cn2C1CC1`: the melting point lay within 188 to 189 °C.

`CCCNS(=O)(=O)c1ccc(Nc2nc(OCC3CCCCC3)c3nc[nH]c3n2)cc1` yielded a melting point of 207 to 208 °C.

Turning to `COc1nc(NCCCN2CCOCC2)nc(OC)c1NC(=O)c1coc(Oc2cccc(C(C)(C)C)c2)n1`, the melting point was 85 °C.

The compound `CN(C)C=C(C#N)C(=O)Nc1ccccc1Br` registered a melting point of 140 to 141 °C.

Consider `CCOc1ccc2c(c1)n(-c1ccccn1)c(=O)n2S(=O)(=O)c1ccc([N+](=O)[O-])cc1OC`, for which the melting point was 175 °C.

`Cc1c(Br)c(=O)n(C2CCCC2)c2nc(Nc3ccc(N4CCN(C(=O)OC(C)(C)C)CC4)cn3)ncc12` had a melting point greater than 250 °C.

The compound `CC(C)(C)n1cnc(-c2ccc(F)cc2)c1-c1ccncc1` gave a melting point of 199 °C.

`CC1CC(=O)N(Cc2ccccc2)c2ccccc2N1C(=O)CN1C(=O)c2ccccc2C1=O` (stereo not given) gave a melting point of 248 to 250 °C.

Turning to `CCOC(=O)Nc1cc(C(=O)N(C)OC)c(Cl)cc1F`, the melting point came out at 121 °C.

Consider `COC(OCCc1nc(C(C)C)c(Sc2cc(Cl)cc(Cl)c2)n1C)(c1ccccc1)c1ccccc1`, for which the melting point lay in the range of 107 to 108 °C.

Regarding `CC(C)(COCc1cccc(Oc2ccccc2)c1)c1ccc(O)cc1`, the melting point lay in the range of 69.2 to 70 °C.

Compound `CC(=O)NCc1cccc(Nc2nccc(-c3sc(-c4ncc(C(F)(F)F)cc4Cl)nc3C)n2)c1` came in with a melting point of 217 to 218 °C.

In the case of `CC(=O)Cc1ccc(OCc2ccc(Cl)cc2)cc1`, the melting point was in the range of 76 to 80 °C.

The compound `CC(=O)NNC(=O)c1ccc(Br)c(C)c1` gave a melting point of 186 to 187 °C.

As to `COc1ccc(C(=O)Nc2ccc3ccc(Oc4c(C)cccc4C)nc3n2)cc1`, the melting point was 174 °C.

The compound `CCOC(=O)c1ccc(CNC(N)=O)cc1` had a melting point of 173 to 175 °C.

Compound `CCn1nc(C#Cc2ccccc2)ccc1=O` showed a melting point of 74 to 75 °C.

`CCN1CCCC(NC(=O)c2cc(C)on2)C1` (stereo not given): the melting point was 84 to 86 °C.

`Cc1oc(-c2ccccc2)nc1CCOc1ccc(COc2ncccc2CC(=O)O)cc1` displayed a melting point of 134 to 135 °C.

In turn, `Cc1ccc(CN2CCN(CCCOc3ccc4[nH]c(=O)cc(C)c4c3)CC2)cc1` gave a melting point of 162 to 163 °C.

For `CC(CO)CCn1c(C(=O)NCc2cc(C(F)(F)F)cc(C(F)(F)F)c2)c(-c2ccccc2)c2cccnc2c1=O` (racemic), the melting point was 213 to 214 °C.

The compound `COc1ccc(-c2nc(-c3cccn3CC(=O)OCCC(C)C)sc2-c2ccc(OC)cc2)cc1` returned a melting point of 98.5 to 102 °C.

Consider `Cc1ccc(NC(=O)c2ccc(/C=C/C(=O)NO)s2)cc1Nc1nc(-c2cccnc2)cs1`, for which the melting point stood at 242 °C.

Compound `Cc1ccc(Cc2cnc(NCCCCc3cc(CN(C)C)ccn3)[nH]c2=O)cn1` gave a melting point of 135 to 137 °C.

Compound `O=c1cc(-c2cc(OCc3ccccc3)cc(OCc3ccccc3)c2)oc2cc(OCC3CO3)ccc12` (stereo not given) registered a melting point of 172 to 173 °C.

For the compound `CNC(=O)C=Cc1ccc(C(=O)O)cc1`, the melting point lay within 270 to 273 °C.

Turning to `CC(C)n1c(=O)oc2cc([N+](=O)[O-])cc(F)c21`, the melting point is 122 to 123 °C.

`CCC(=O)Nc1ccnn1-c1c(Cl)cc(C(F)(F)F)cc1Cl`: the melting point is 125 °C.

As for `CCC(CC)n1cc(C#N)nc(N2CCc3cc(Cl)cc(Cl)c32)c1=O`, the melting point lay in the range of 197 to 199 °C.

Values taken from a melting point compilation (Tetko et al.; mined from patent text by program, amines drawn as free bases though some values may be those of a salt).
